Measured values: patent US20140248634A1, “VIMENTIN AS A BIOMARKER FOR THE PROGRESSION OF MYELOPROLIFERATIVE NEOPLASMS” (University of Florida Research Foundation, priority 2011, published 2014)
Entries after “also recorded” stand apart in the source; their conditions may differ. Starred links: 1 amine or outer side, 2 acyl side, 3 side chain; linkers in the order of their positions; H or OH if unused. Non-standard residues stand in square brackets, D forms with d. Residues, ends and D or L forms follow the SMILES beside them. *: point of attachment. hPhe = N[C@@H](CCc1ccccc1)C(=O)O; Morpholide = C1CN(*)CCO1; Cbz = O=C(OCc1ccccc1)*; CO = O=C([*:1])[*:2]; CH2F = FC*

How the values were obtained:
vimentin [1] = test: Western blotting of HEL cell lysates with anti-vimentin antibody; type: cell-based, human; conditions: HEL cells; for effect on full-length vimentin, Jak2 vs non-Jak2 inhibitors: increasing concentrations; for cleavage of vimentin intermediate filaments in the viability samples: 30 μM G6 or 2% IDPN, 0, 6, 12, 24 or 48 hours
Experimental: Protein concentrations in the whole cell lysates were determined using a Bradford assay (Bio-Rad). Cell lysates were then resuspended in SDS sample buffer. Whole cell lysates (˜30 μg) were separated by SDS-PAGE and then transferred onto nitrocellulose membranes for analysis by western blotting.
(§1) Nitrocellulose membranes were first blocked with 5% milk/TBST solution at room temperature and then probed first with the different indicated primary antibodies overnight at 4° C. followed by the respective secondary antibodies (1:4000, GE Healthcare). The immuno-reactive bands were then visualized using the enhanced chemiluminescence system (Western Lightning Ultra, Perkin-Elmer). The following antibodies were used at the indicated dilutions: vimentin (Abcam and BD Biosciences, each at 1:500), STAT1 (Santa Cruz Biotechnology, 1:1000), and β-actin (Cell Signaling, 1:500).

PARP = test: Western blotting of HEL cell lysates for PARP cleavage; type: cell-based, human; conditions: HEL cells, pretreated 4 hours, then 30 μM and 60 μM G6 for 24 hours
Experimental: Cells (˜107) were washed with two volumes of ice-cold PBS and then lysed in 0.8 ml of ice-cold RIPA buffer (20 mM Tris pH 7.5, 10% glycerol, 1% Triton X-100, 1% deoxycholic acid, 0.1% SDS, 2.5 mM EDTA, 50 mM NaF, 10 mM Na4P2O7, 4 mM benzamidine, and 10 μg/mL aprotinin). Protein concentrations in the whole cell lysates were determined using a Bradford assay (Bio-Rad). Cell lysates were then resuspended in SDS sample buffer. Whole cell lysates (˜30 μg) were separated by SDS-PAGE and then transferred onto nitrocellulose membranes for analysis by western blotting.
as §1

[2] = system: vimentin intermediate filaments; test: Indirect immunofluorescence of vimentin in HEL cells; type: cell-based, human; conditions: 25 μM, 24 and 36 hr
Experimental: HEL cells were cultured in RPMI in 100 mm dishes and treated with 25 μM G6 for the indicated periods of time. Following treatment, the cells were centrifuged, washed and resuspended in 1×PBS. Cells were then plated onto poly-L-lysine coated 8-chamber slides (Santa Cruz Biotechnology) and fixed at −20° C. in a mixture of 50% methanol and 50% acetone for 10 minutes. The fixed cells were then permeabilized with 0.2% Triton X-100 and blocked with 5% goat serum for 30 minutes at room temperature. The samples were then incubated overnight at 4° C. with a primary antibody of mouse anti-vimentin (BD Biosciences, 1:100). The next day, the cells were washed 4× with PBS at room temperature. The samples were then incubated with a FITC-conjugated anti-mouse secondary antibody (Santa Cruz Biotechnology) for one hour at room temperature. The cells were again washed with PBS, mounted with UltraCruz DAPI containing mounting media (Santa Cruz Biotechnology) and sealed with a cover slip. These cells were imaged using a 100× objective on an inverted fluorescence microscope (Olympus).

vimentin protein = test: Xenograft model of Jak2-V617F expressing HEL cells in NOD/SCID mice, bone marrow anti-vimentin immunohistochemistry; type: in vivo; conditions: NOD/SCID mice with HEL cells, 21 days
Source text: The xenograft model of Jak2-V617F expressing HEL cells in NOD/SCID mice has been described previously (15). Briefly, 3 months old NOD/SCID mice were randomized into 5 groups (n=6 per group). […] All other groups received a single tail vein injection of 2×10^6 Jak2-V617F positive HEL cells. Three weeks after HEL cell injection, the mice developed symptoms of a fully penetrant bone marrow malignancy. The mice then began receiving intraperitoneal injections of either vehicle control (DMSO) or G6 at doses of 0.1, 1, and 10 mg/kg/day for the next 21 days. At the end of the three week treatment period, all groups of mice were euthanized and bone marrow tissues were fixed in 10% neutral-buffered formalin and embedded in paraffin.
Paraffin embedded bone marrow sections from each treatment group were analyzed by antivimentin immunohistochemistry. Antigen retrieval was carried out first by microwaving at 95° C. for 20 min in 1 mM EDTA-NaOH solution, pH 8.0. The section were then cooled, blocked with Protein Block (DAKO), and incubated with antivimentin antibody (Abcam, 1:100) for 2 hours at room temperature. Antigen-antibody comeplexes were detected using biotinylated secondary antibodies and streptavidin-peroxidase substrate (DAKO). Stained sections were then analyzed via a standard light microscope (Nikon) at 40× and 100× magnifications.

[3] = system: Jak2-V617F-mediated HEL cell proliferation; conditions: previously demonstrated (14,15); cited from earlier work
vimentin [4] = test: 2-D differential in gel electrophoresis (2-D DIGE) of HEL cell proteins; type: cell-based, human; conditions: HEL cells, 25 μM, 12 hours, vs 0.25% DMSO
Experimental: HEL cells treated either with vehicle control DMSO or 25 μM G6 for 12 hours. The cell pellets were resuspended in ice cold buffer containing 0.3% SDS, 20 mM Tris pH 8.0, 100 mM DTT, 10 μl protease inhibitor cocktail III (Calbiochem), 5 mM MgCl2 and 250 units of benzonase. The cell suspension was homogenized by sonication. Protein was precipitated with 9 volumes of ice cold 10% trichloroacetic acid (TCA) in acetone overnight at 4° C. Precipitated proteins were then dissolved in solubilization buffer (7 M urea, 2 M thiourea, 4% CHAPS, 0.2% SDS and 20 mM Tris, pH 8.0). After centrifugation at 43,000 rpm for 30 min, solubilized protein in the supernatant was quantified using the EZQ Protein Assay Kit (Invitrogen). Proteins (100 μg per sample) were minimally labeled with CyDye (GE Healthcare) as per the manufacturer's protocol. An internal standard, which is loaded on every gel, was created by mixing equal amounts of protein from all samples. Proteins from the DMSO treated samples were labeled with Cy3 (green) and the G6 treated samples were labeled with Cy5 (red). The internal standard was labeled with Cy2 (blue). […] The digital image was then analyzed with DeCyder 2D version 7.0 GE Healthcare). Information from replicate gels was analyzed with BVA Module (Biological Variation Analysis). […]

caspase 3/7 = conditions: HEL cells, previously showed (15); cited from earlier work
HEL cells = test: Cell proliferation assay (trypan blue exclusion, hemocytometer); type: cell-based, human; conditions: 30 μM G6 or 2% IDPN, 0, 6, 12, 24 or 48 hours, vs DMSO
Experimental: HEL cells were plated in 96-well plates and treated with either 0.25% DMSO, 30 μM G6 or 2% IDPN for the indicated periods of time. Cell viability was then assessed for each sample by trypan blue exclusion staining and hemocytometer.

**Q.** For Jak Inhibitor I, which “effect on full-length vimentin, Jak2 vs non-Jak2 inhibitors” value (from here on “effect … vs non-Jak2 inhibitors”) (vimentin [1]; 24 hours) is on record?
**A.** Its value is “induced cleavage of vimentin dose-dependently”.

**Q.** Which “effect … vs non-Jak2 inhibitors” value (vimentin [1]; 24 hours) does the source give for `N#C/C(=C/c1ccc(O)c(O)c1)C(=O)NCc1ccccc1` [AG490] here?
**A.** The value was “induced cleavage of vimentin dose-dependently”.

**Q.** For `CNc1ccc2oc(C[C@H]3O[C@@]4(CC[C@H]3C)O[C@H]([C@H](C)C(=O)c3ccc[nH]3)[C@H](C)C[C@H]4C)nc2c1C(=O)O` [Compound A23187], which cleavage of vimentin (vimentin [1]; 10 μM, increasing periods of time) is on record?
**A.** The cleavage of vimentin was “sufficient to induce cleavage of intermediate filament protein vimentin”.

**Q.** Which “effect of pretreatment on G6-induced cleavage of PARP” value (PARP) does the source give for `COC(=O)C[C@H](NC(=O)[C@H](C)NC(=O)[C@@H](NC(=O)OCc1ccccc1)C(C)C)C(=O)CF` [zVAD-fmk, Z-VAD (OMe)-FMK] (Cbz-Val-Ala-Asp(OMe)-CH2F) here?
**A.** Its value is “able to block the G6-induced cleavage of PARP”.

**Q.** And the “effect of pretreatment on G6-induced cleavage of vimentin” value (from here on “effect of pretreatment … of vimentin”) (vimentin [1]; pretreated 4 hours, then 30 μM and 60 μM G6 for 24 hours)?
**A.** The value was “unable to prevent G6-induced cleavage of vimentin”.

**Q.** For `C[C@@H]1C[C@@H]([C@H](O)CC2CC(=O)NC(=O)C2)C(=O)[C@@H](C)C1` [cycloheximide], which “effect of pretreatment … of vimentin” value (vimentin [1]; cycloheximide pretreatment 4 h, then increasing concentrations of G6 for 24 hours) is on record?
**A.** Its value is “not be blocked by pretreatment with cycloheximide”.

**Q.** For `CC(C)(C)n1nc(-c2ccc(Cl)cc2)c2c(N)ncnc21` [PP2], which “effect … vs non-Jak2 inhibitors” value (vimentin [1]; 24 hours) is on record?
**A.** The value was “no effect on full-length vimentin”.

**Q.** With `CC(C)[C@H](NC(=O)N1CCOCC1)C(=O)N[C@@H](CCc1ccccc1)C(=O)CF` [Calpain Inhibitor V, Mu-Val-HPh-CH2F] ({Morpholide-CO}-Val-[hPhe]-CH2F) as the compound, how does the “effect of pretreatment … of vimentin” value (vimentin [1]; calpain inhibitor pretreatment 4 hours, then increasing doses of G6 for 24 hours) read?
**A.** Its value is “prevented G6-induced cleavage of vimentin in a dose-dependent manner”.

**Q.** With `CC(=O)OCOC(=O)CN(CC(=O)OCOC(C)=O)c1ccccc1OCCOc1ccccc1N(CC(=O)OCOC(C)=O)CC(=O)OCOC(C)=O` [BAPTA-AM] as the compound, how does the “effect of pretreatment … of vimentin” value (vimentin [1]; 10 μM BAPTA-AM 2 hours, then 30 μM G6 for 24 hours) read?
**A.** The value was “sufficient to protect vimentin from G6-induced cleavage”.

**Q.** For `CCC(=C(CC)c1ccc(O)c(CN(CC)CC)c1)c1ccc(O)c(CN(CC)CC)c1` [Compound G6, 4,4′-(hex-3-ene-3,4-diyl)bis(2-((diethylamino)methyl)phenol)], which “cellular distribution of vimentin” value [2] is on record?
**A.** The value was “aggregated/localized in the perinuclear region of the cell”.

**Q.** And the “bone marrow vimentin protein level vs DMSO treated mice” value (vimentin protein; 0.1 mg/kg/day intraperitoneal)?
**A.** The value was “did not produce any observable change”.

**Q.** And the “bone marrow vimentin protein level vs DMSO treated mice” value (vimentin protein; 1 mg/kg/day intraperitoneal)?
**A.** Its value is “clearly reduced the levels of vimentin protein”.

**Q.** What about the “bone marrow vimentin protein level vs DMSO treated mice” value (vimentin protein; 10 mg/kg/day intraperitoneal) of the same compound?
**A.** The value was “clearly reduced the levels of vimentin protein”.

**Q.** And the “Jak2-V617F-mediated HEL cell proliferation” value [3]?
**A.** Its value is “inhibits Jak2-V617F-mediated HEL cell proliferation”.

**Q.** And the “apoptosis of HEL cells” value [3]?
**A.** The value was “induces apoptosis”.

**Q.** And the “full-length vimentin (western blot)” value (vimentin [1]; 25 μM, 24 h, vs DMSO)?
**A.** The value was “disappearance of full-length vimentin”.

**Q.** And the “cleavage of full-length vimentin as a function of time” value (vimentin [1]; 25 μM, varying lengths of time)?
**A.** The value was “cleaved into low molecular weight fragments”.

**Q.** What about the “cleavage of vimentin intermediate filaments in the viability samples” value (vimentin [1]) of the same compound?
**A.** The value was “time-dependent cleavage of vimentin intermediate filaments”.

**Q.** And the “effect … vs non-Jak2 inhibitors” value (vimentin [1]; 24 hours)?
**A.** The value was “induced cleavage of vimentin dose-dependently”.

**Q.** And the “cleavage of full-length vimentin as a function of dose” value (vimentin [1]; increasing doses, 24 hours)?
**A.** Its value is “cleaved into low molecular weight fragments”.

**Q.** And the “specificity for vimentin over other cytoskeletal proteins (β-actin reprobe)” value (vimentin [1]; same samples reprobed with anti-β-actin antibody)?
**A.** Its value is “specificity of G6 for vimentin over other cytoskeletal proteins such as β-actin”.

**Q.** What about the “vimentin protein expression (2-D DIGE)” value (vimentin [4]) of the same compound?
**A.** Its value is “down regulated; also recorded: significantly downregulated”.

**Q.** What about the “caspase 3/7 activation” value (caspase 3/7) of the same compound?
**A.** Its value is “causes caspase 3/7 activation in a time-dependent manner”.

**Q.** What about the viable cell numbers (HEL cells) of the same compound?
**A.** Its viable cell numbers is “time dependently decreased viable cell numbers”.

**Q.** With `COc1cccc(-c2cc(=O)c3ccccc3o2)c1N` [PD98059] as the compound, how does the “effect … vs non-Jak2 inhibitors” value (vimentin [1]; 24 hours) read?
**A.** Its value is “no effect on full-length vimentin”.

**Q.** For `N#CCCNCCC#N` [IDPN, 3′,3′-iminodipropiontrile, reference compound], which “cleavage of vimentin intermediate filaments in the viability samples” value (vimentin [1]) is on record?
**A.** The value was “time-dependent cleavage of vimentin intermediate filaments”.

**Q.** And the viable cell numbers (HEL cells)?
**A.** Its viable cell numbers is “time dependently decreased viable cell numbers”.
